Measurements reported in patent publication US20250066739A1, “Compositions and Methods for Improving Squamous Epithelial Organoids and Their Production” (The Trustees of Columbia University in the City of New York, priority 2022, published 2025).

Experiments:
[1] = system: EPC1 and EPC2 hTERT-immortalized normal esophageal keratinocytes; assay: Organoid formation by EPC1/EPC2 esophageal 3D organoids; assay type: cell-based
Experimental: (§1) In general, 2×10^4 cells were seeded per well to initiate PDO in 24-well plates, which were pre-warmed to 37° C. 1.4×10^5 cells were transferred into a 1.7-mL tube and centrifuged at 500×g (2,300 rpm on Eppendorf 5424R) for 3 min at room temperature to pellet cells. Cells were resuspended in 350 μL ice-cold MATRIGEL® and 50 μL of the suspension was aliquoted into each well of 24-well plate. The 24-well plate was placed in a CO2 incubator at 37° C. for 30 min to allow the MATRIGEL® to solidify.
(§2) 500 μL of a tumor-type specific organoid medium (see Example 11) was added to each well, and the organoid media was changed every 2 to 3 days. Contamination and organoid growth was monitored under a phase-contrast microscope, and organoids were allowed to grow for 10 to 14 days and then passaged or harvested. If spherical structures were observed but grew slowly, the culturing period was extended for another 7 to 14 days.
To evaluate organoid growth, 3D organoid structures were monitored during culturing, and their size was documented by a conventional phase-contrast inverted microscope or high-throughput cell imaging instruments (e.g., Celigo Image Cytometer, Nexcelom Bioscience) with the capacity of automated multi-well rapid imaging and quantitative analysis of organoid size, number, and structure. Organoids were grown in 24-well or 96-well plates as described above, and phase-contrast images were manually acquired. Using ImageJ software, the diameter of at least 5 organoids per well was measured. The Celigo Image Cytometer was also used to acquire phase-contrast images and calculate mean organoid area for all organoids imaged. Growth curves were subsequently calculated by repeating measurements every other day and plotting organoid diameter or area at each time point.
In order to improve the success rate of creating and subculturing organoids through increasing numbers of passages, alterations to existing media were explored and compared to each other and the HC media described in Driehuis et al., Cancer Discov, 2019; 9:852-71. […]

neoplastic PDOs = assay: Growth and formation of neoplastic PDOs; assay type: cell-based, human; conditions: FIG. 2
Experimental: as §1, §2
To evaluate organoid growth, 3D organoid structures were monitored during culturing, and their size was documented by a conventional phase-contrast inverted microscope or high-throughput cell imaging instruments (e.g., Celigo Image Cytometer, Nexcelom Bioscience) with the capacity of automated multi-well rapid imaging and quantitative analysis of organoid size, number, and structure. […] Using ImageJ software, the diameter of at least 5 organoids per well was measured. […]

Compound: Cc1cccc(-c2nn(C(=S)Nc3ccccc3)cc2-c2ccnc3ccccc23)n1 [A83-01, reference compound]
- EPC1/EPC2 organoid growth in HOME50 devoid of A83-01 ([1]; medium lacking A83-01 (ΔA), FIG. 5): did not grow

Compound: EGF: Recombinant human epidermal growth factor (Peprotech, cat. No. AF-100-15) (NSDSECPLSHDGYCLHDGVCMYIEALDKYACNCVVGYIGERCQYRDLKWWELR; Epidermal growth factor; UniProt P01133 971-1023, looked up)
- organoid formation and structure ([1]; effect of EGF concentration, esophageal 3D organoids, FIG. 1): influences organoid formation and structure
- squamous-cell differentiation gradient ([1]; low EGF concentration, FIG. 1): more closely recapitulates a normal squamous-cell differentiation gradient
- growth and formation of neoplastic PDOs (neoplastic PDOs): may stimulate growth, if not formation
